Experimental data reported in US8557839B2, “Fused ring azadecalin glucocorticoid receptor modulators” (Corcept Therapeutics, Inc., priority 2004, dated 2013).

What was measured:
[1] = molecular target: T1, mineralocorticoid (MR) receptor (Homo sapiens, UniProt P08235); test: MR functional assay using T47D/MMTV-5 cells; format: cell-based; details: read-out: inhibition of the MR functional response
T1 construct: containing endogenous mineralocorticoid-(MR) and progesterone (PR) receptors; endogenous in cells; host or cells: T47D/MMTV-5 (human breast carcinoma, stably carrying the pMAMneo-Luc reporter)
T1 sequence (P08235 1-984): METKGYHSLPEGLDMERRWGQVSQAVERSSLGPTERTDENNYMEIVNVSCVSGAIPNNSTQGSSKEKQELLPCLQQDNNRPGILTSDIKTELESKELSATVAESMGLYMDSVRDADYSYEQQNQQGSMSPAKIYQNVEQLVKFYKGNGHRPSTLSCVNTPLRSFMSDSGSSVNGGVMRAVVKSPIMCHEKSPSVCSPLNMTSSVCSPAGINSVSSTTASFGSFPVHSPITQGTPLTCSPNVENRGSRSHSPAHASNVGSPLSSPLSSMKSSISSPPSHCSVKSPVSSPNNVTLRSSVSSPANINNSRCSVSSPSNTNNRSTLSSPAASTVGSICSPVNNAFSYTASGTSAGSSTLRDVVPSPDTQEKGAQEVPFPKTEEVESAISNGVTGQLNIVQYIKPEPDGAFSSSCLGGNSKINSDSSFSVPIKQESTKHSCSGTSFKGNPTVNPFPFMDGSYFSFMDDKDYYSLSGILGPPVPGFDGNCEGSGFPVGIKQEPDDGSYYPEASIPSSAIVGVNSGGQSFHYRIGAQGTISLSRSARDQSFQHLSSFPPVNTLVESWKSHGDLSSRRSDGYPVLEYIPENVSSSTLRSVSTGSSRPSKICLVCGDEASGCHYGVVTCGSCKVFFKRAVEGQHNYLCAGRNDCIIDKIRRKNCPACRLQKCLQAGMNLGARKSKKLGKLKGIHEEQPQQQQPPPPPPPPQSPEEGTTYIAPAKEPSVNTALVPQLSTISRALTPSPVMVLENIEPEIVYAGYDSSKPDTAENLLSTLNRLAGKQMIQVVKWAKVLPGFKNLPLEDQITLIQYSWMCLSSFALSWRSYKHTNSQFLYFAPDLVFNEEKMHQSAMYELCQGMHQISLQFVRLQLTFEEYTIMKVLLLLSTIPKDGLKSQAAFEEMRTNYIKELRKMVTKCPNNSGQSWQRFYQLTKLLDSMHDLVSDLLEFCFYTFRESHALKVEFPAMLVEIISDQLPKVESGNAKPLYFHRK
Protocol: (§1) As for the SW 1353 cell line, T47D cells was transfected with the same pMAMneo-Luc plasmid, and stable lines selected with geneticin.
(§2) T47D/MMTV-5 cells were distributed in 96-well plates (100 μl) in RPMI1640 medium +10% Charcoal stripped FCS. The cells were incubated for 24 hrs in the CO2-oven. A volume of 100 μl of the compound dilutions in medium +agonist (500 nM aldost; 50 nM progest) were added, and the plates further incubated for another 24 hrs after which the luciferase expression was measured.

[2] = molecular target: T2, progesterone (PR) receptor (Homo sapiens, UniProt P06401); test: PR functional assay using T47D/MMTV-5 cells; format: cell-based; details: read-out: inhibition of the PR agonist response
T2 construct: containing endogenous mineralocorticoid-(MR) and progesterone (PR) receptors; endogenous in cells; host or cells: T47D/MMTV-5 (human breast carcinoma, stably carrying the pMAMneo-Luc reporter)
T2 sequence (P06401 1-933): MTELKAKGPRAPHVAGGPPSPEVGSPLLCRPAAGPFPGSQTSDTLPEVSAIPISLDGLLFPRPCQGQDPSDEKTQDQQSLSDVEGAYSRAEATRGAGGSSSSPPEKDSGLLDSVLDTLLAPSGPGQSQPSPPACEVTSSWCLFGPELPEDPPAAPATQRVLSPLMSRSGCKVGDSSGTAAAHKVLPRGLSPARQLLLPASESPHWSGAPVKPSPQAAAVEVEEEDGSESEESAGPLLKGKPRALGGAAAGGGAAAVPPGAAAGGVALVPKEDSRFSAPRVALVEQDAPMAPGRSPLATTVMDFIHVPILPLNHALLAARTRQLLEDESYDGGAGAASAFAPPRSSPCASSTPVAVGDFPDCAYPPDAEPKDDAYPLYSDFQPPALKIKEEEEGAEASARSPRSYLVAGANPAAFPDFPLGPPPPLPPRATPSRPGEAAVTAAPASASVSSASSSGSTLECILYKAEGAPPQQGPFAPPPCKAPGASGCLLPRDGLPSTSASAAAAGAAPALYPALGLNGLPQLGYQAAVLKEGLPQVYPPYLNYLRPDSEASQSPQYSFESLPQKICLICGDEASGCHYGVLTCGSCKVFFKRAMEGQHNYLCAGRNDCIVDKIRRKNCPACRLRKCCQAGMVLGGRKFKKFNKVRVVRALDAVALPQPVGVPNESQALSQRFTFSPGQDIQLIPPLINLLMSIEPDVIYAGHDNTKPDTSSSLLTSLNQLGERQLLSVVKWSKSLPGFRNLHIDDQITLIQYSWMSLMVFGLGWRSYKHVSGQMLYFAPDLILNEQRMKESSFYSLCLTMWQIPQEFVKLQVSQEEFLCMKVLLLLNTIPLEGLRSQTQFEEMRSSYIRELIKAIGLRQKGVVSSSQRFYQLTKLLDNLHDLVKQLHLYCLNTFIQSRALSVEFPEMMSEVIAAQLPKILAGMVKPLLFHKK
Protocol: as §1, §2

inhibition at 3 µM [1]: 10%
inhibition at 3 µM [2]: 8%
SMILES: CC(C)(C)c1ccc(S(=O)(=O)N2CCC3=Cc4c(cnn4-c4ccc(F)cc4)C[C@]3(C)C2)cc1 [Example 29, (S)-6-(4-tert-Butyl-benzenesulfonyl)-1-(4-fluoro-phenyl)-4a-methyl-4,4a,5,6,7,8-hexahydro-1H-1,2,6-triaza-cyclopenta[b]naphthalene]
